One experiment deals with T1, c-Kit (Homo sapiens, UniProt P10721).
T1 construct: purchased Cell Signaling
The experiment in a line: c-KIT kinase ELISA bioassay. It counts as biochemical. The note with it: ELISA kinase assay, 20 μM ATP. The protocol: This assay is used to measure in vitro kinase activity of c-KIT in an ELISA assay.
• 1. Streptavidin coated, 96-well, white plate • 2. Phospho-Tyrosine Monoclonal Antibody (P-Tyr-100) (Cell Signaling) • 3. HRP-labeled anti-mouse IgG (Upstate) • 4. HTScan™ Tyrosine Kinase Buffer (4×) • 5. DTT (1000×. 1.25 M) • 6. ATP (10 mM) • 7. KDR (Tyr996) Biotinylated Peptide Substrate (Cell Signaling) • 8. c-KIT Kinase (recombinant, human) (Cell Signaling) • 9. Wash Buffer: 1× PBS, 0.05% Tween-20 (PBS/T) • 10. Bovine Serum Albumin (BSA) • 11. Stop Buffer: 50 mM EDTA pH 8 • 12. Enhanced chemiluminescence (ECL) (Amersham) Procedure for performing the assay in 96-well plate: • 1. Add 10 μl 10 mM ATP to 1.25 ml 6 μM substrate peptide. Dilute the mixture with dH20 to 2.5 ml to make 2× ATP/substrate cocktail ([ATP]=40 μM, [substrate]=3 μm). • 2. Immediately transfer enzyme from −80° C. to ice. Allow enzyme to thaw on ice. • 3. Microcentrifuge briefly at 4° C. to bring liquid to the bottom of the vial. Return immediately to ice. • 4. Add 10 μl of DTT (1.25 M) to 2.5 ml of 4× HTScan™ Tyrosine Kinase Buffer (240 mM HEPES pH 7.5, 20 mM MgCl2, 20 mM MnCl2, 12 μM Na3VO4) to make DTT/Kinase buffer. • 5. Transfer 1.25 ml of DTT/Kinase buffer to enzyme tube to make 4× reaction cocktail ([enzyme]=4 ng/μL in 4× reaction cocktail). • 6. Incubate 12.5 μl of the 4× reaction cocktail with 12.5 μl/well of prediluted compound of interest (usually around 10 μM) for 5 minutes at room temperature. • 7. Add 25 μl of 2× ATP/substrate cocktail to 25 μl/well preincubated reaction cocktail/compound. Final Assay Conditions for a 50 μl Reaction: • 60 mM HEPES pH 7.5 • 5 mM MgCl2 • 5 mM MnCl2 • 3 μM Na3VO4 • 1.25 mM DTT • 20 μM ATP • 1.5 μM peptide • 100 ng c-KIT Kinase • 8. Incubate reaction plate at room temperature for 30 minutes. • 9. Add 50 μl/well Stop Buffer (50 mM EDTA, pH 8) to stop the reaction. • 10. Transfer 25 μl of each reaction and 75 μl dH2O/well to a 96-well streptavidincoated plate and incubate at room temperature for 60 minutes. • 11. Wash three times with 200 μl/well PBS/T • 12. Dilute primary antibody, Phospho-Tyrosine Monoclonal Antibody (P-Tyr-100), 1:1000 in PBS/T with 1% BSA. Add 100 μl/well of primary antibody. • 13. Incubate at room temperature for 60 minutes. • 14. Wash three times with 200 μl/well PBS/T • 15. Dilute HRP labeled anti-mouse IgG 1:500 in PBS/T with 1% BSA. Add 100 μl/well diluted antibody. • 16. Incubate at room temperature for 30 minutes. • 17. Wash five times with 200 μl/well PBS/T. • 18. Add 100 μl/well ECL Solution. • 19. Detect luminescence with appropriate Plate Reader. Flt3 Bioassay
(In general: An ELISA detects its analyte on a solid surface through an enzyme-linked reagent.)

The subject of experiment [1] is Mo7e cells (SCF dependent). The experiment in a line: c-Kit ligand (SCF) dependent cell proliferation. Particulars: SCF 50 ng/ml, 72 hours, MTS. It counts as cell-based. The protocol: SCF dependent cell proliferation:
Mo7e cells (SCF dependent) were plated into 96-well plates at 15000 per well and incubated in 1640 medium with 10% FBS and SCF (50 ng/ml) for 24 hours. Compounds were added and incubated for 72 hours at 37° C. in CO2 incubator. The effects on proliferation were determined by addition of MTS reagent (Promega) according to the instruction, incubation for 2 hours at 37° C. in CO2 incubator, and record the absorbance at 490 nm using an ELISA plate reader.

A further experiment deals with HDAC4/5. The experiment in a line: MEF2 reporter assay in HeLa cells. The class given is cell-based, human. The note with it: for EC50: 24 hours; for HDAC4/5 (MEF2 reporter assay) % Max Resp of CS055 at 3 μM: relative to CS055 at 3 μM. The protocol: (§1) HDAC subtype selectivity inhibition assay of tested compounds was carried out by several reporter gene assays experiments. Briefly, HeLa cells were seeded in 96-well plates the day before transfection to give a confluence of 50-80%. Cells were transfected with one of reporter gene plasmid containing a promoter sequence or response element upstream of a luciferase gene construct using FuGene6 transfection reagent according to the manufacturer's instruction (Roche). The promoters or response elements including p21-promoter, gdf11-promoter, MEF-binding element (MEF2), Nur77-promoter were fused upstream to the luciferase gene reporter construct. For normalizing the transfection efficiency, a GFP expression plasmid was cotransfected. Cells were allowed to express protein for 24 hours followed by addition of individual compounds or the vehicle (DMSO). 24 hours later the cells were harvested, and the luciferase assay and GFP assay were performed using corresponding assay kits according to the manufacturer's instructions (Promega).

For the next experiment, the target named is T2, HDAC3 (Homo sapiens, UniProt O15379).
T2 construct: endogenous in cells; host or cells: HeLa
T2 sequence (O15379 whole entry): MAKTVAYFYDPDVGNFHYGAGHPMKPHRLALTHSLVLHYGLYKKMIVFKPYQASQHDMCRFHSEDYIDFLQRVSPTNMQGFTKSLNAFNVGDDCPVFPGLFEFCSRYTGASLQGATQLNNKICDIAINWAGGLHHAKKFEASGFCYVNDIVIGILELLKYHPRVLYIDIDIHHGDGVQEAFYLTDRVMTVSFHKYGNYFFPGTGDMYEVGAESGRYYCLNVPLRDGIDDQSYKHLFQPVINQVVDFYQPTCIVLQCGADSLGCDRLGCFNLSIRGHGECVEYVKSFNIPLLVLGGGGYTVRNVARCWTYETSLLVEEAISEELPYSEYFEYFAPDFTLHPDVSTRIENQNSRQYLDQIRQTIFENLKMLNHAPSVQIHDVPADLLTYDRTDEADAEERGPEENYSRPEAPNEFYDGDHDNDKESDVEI
T2 sequence (Q9Y618 whole entry partner): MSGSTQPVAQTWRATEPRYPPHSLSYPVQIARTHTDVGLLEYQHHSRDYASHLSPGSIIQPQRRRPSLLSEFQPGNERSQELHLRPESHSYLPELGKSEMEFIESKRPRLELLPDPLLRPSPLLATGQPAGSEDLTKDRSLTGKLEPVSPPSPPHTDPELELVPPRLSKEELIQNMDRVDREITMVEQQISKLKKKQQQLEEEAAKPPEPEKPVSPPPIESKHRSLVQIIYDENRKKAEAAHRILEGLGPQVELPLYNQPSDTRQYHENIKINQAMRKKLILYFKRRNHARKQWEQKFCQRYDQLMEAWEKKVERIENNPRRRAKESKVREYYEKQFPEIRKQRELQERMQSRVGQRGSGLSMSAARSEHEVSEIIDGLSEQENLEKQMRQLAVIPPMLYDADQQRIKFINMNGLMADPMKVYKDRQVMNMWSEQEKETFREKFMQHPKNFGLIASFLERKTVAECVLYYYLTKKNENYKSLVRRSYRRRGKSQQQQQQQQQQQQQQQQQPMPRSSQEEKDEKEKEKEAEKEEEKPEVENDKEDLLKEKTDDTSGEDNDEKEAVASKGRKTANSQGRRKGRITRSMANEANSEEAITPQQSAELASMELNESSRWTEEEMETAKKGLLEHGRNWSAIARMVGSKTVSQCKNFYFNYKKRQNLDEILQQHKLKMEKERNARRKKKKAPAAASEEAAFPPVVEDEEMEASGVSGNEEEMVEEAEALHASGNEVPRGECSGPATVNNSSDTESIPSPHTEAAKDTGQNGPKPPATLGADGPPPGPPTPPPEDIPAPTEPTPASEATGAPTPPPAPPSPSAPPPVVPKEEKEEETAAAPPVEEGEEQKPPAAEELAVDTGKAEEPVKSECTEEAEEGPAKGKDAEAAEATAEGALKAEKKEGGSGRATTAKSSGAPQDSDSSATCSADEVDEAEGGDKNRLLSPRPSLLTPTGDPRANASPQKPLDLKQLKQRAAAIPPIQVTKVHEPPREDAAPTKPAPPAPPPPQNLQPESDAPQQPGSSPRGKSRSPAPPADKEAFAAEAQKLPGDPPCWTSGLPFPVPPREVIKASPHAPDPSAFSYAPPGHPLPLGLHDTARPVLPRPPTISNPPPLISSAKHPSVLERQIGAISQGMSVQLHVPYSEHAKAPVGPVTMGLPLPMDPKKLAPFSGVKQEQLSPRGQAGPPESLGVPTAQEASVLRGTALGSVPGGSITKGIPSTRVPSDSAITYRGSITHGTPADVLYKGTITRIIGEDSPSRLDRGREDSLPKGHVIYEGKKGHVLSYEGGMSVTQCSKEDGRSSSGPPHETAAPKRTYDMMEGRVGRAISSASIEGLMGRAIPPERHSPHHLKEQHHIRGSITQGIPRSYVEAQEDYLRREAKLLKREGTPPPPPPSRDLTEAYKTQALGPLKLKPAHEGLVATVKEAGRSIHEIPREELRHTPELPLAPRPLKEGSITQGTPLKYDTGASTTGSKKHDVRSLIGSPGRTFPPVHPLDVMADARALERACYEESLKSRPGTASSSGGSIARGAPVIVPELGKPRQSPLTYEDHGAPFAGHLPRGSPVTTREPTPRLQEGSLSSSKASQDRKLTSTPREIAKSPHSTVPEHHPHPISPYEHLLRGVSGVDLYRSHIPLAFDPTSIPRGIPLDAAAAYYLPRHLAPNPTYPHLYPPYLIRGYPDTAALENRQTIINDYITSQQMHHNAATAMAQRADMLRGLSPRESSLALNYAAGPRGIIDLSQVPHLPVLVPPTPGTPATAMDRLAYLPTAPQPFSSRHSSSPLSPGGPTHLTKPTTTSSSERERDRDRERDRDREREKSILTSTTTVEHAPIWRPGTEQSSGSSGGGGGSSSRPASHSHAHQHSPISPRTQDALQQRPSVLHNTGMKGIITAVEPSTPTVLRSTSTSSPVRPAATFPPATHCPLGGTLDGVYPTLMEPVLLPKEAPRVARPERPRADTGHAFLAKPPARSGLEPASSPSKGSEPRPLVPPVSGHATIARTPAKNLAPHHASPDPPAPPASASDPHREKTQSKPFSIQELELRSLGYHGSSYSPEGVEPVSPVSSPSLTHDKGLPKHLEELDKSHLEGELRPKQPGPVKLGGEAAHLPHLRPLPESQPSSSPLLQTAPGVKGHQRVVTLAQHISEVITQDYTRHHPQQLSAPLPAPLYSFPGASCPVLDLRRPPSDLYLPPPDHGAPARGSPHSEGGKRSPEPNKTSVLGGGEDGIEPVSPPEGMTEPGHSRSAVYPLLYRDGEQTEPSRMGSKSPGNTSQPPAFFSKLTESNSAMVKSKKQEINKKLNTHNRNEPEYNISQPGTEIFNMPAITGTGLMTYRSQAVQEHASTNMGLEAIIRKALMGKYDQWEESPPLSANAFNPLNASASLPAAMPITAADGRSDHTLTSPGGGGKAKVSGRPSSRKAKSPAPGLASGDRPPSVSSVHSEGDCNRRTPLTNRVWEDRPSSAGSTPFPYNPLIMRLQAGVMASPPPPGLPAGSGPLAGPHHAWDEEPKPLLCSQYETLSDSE
The experiment in a line: GDF11 reporter assay in HeLa cells. It counts as cell-based. The note with it: for EC50: 24 hours; for HDAC3 (GDF11 reporter assay) % Max Resp of CS055 at 3 μM: relative to CS055 at 3 μM. The method, then:
as §1
(In general: Reporter assays use an easily measured gene product as a stand-in for the process of interest.)

Structures are written as SMILES. Some results are limits rather than exact numbers.

T1 sequence (P10721 26-976): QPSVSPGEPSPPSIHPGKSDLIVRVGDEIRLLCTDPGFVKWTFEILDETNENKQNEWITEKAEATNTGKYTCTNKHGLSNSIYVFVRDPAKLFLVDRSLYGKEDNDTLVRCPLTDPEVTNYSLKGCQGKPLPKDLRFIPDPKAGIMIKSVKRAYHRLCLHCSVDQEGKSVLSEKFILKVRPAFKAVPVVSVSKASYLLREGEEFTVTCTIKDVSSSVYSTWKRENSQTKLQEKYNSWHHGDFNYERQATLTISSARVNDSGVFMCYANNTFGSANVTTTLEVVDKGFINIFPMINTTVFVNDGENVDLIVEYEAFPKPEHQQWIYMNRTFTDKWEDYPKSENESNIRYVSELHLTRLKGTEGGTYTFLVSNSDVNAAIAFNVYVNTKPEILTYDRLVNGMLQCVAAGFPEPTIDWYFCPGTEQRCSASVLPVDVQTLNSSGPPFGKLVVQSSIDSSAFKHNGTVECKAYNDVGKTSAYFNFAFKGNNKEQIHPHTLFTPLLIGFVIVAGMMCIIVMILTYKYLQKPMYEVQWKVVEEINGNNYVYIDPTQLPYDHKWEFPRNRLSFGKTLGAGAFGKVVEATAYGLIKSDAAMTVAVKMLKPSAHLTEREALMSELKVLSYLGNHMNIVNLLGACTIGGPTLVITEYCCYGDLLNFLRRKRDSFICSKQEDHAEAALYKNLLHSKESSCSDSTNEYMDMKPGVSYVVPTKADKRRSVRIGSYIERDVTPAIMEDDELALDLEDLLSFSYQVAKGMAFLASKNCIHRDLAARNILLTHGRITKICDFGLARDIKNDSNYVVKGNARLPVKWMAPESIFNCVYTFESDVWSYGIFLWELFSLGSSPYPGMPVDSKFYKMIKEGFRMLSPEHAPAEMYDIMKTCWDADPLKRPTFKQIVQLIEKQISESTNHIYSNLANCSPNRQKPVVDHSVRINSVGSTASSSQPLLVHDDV

The IC50 is the concentration at which inhibition is half-maximal. Low values mean inhibition by little substance, high ones a need for much substance. The term GI50 denotes the concentration that inhibits growth by half. A high value points to less potent growth inhibition. As a reminder, the EC50 is the concentration that produces a half-maximal response. A higher EC50 goes with a need for much substance. `Cc1[nH]c(/C=C2\C(=O)Nc3ccc(F)cc32)c(C)c1C(=O)NCCNc1ccc(C(=O)Nc2ccccc2N)cn1` [Example 3, (Z)-N-(2-aminophenyl)-6-(2-(2-((5-fluoro-2-oxoindolin-3-ylidene)methyl)-3,5-dimethyl-1H-pyrrole-4-carboxamido)ethylamino)nicotinamide] registered an IC50 against c-Kit of 157 nM. The molecule also had a GI50 in experiment [1] of 126 nM. Also, in the experiment with HDAC4/5, it took 2200 nM to reach a half-maximal effect (EC50) and the “HDAC4/5 (MEF2 reporter assay) % Max Resp of CS055 at 3 μM” value is 83.2%. Moreover, at HDAC3, the response was half-maximal at 1900 nM (EC50) and the “HDAC3 (GDF11 reporter assay) % Max Resp of CS055 at 3 μM” value (“HDAC3 (GDF11 reporter assay) % Max Resp” below) turned out to be 106.2%.

As for `Cc1[nH]c(/C=N/N=C2\C(=O)Nc3ccc(F)cc32)c(C)c1C(=O)NCCNc1ccc(C(=O)Nc2ccccc2N)cn1` [Example 4, N-(2-aminophenyl)-6-(2-(2-(((5-fluoro-2-oxoindolin-3-ylidene)hydrazono)-methyl)-3,5-dimethyl-1H-pyrrole-4-carboxamido)ethylamino)nicotinamide], the IC50 on c-Kit was over 1000 nM. The GI50 in experiment [1] was over 1000 nM. The “HDAC4/5 (MEF2 reporter assay) % Max Resp of CS055 at 3 μM” value in the experiment with HDAC4/5 worked out at 4.9%. Further, the “HDAC3 (GDF11 reporter assay) % Max Resp” value on HDAC3 came to 2.4%.

For the molecule `Cc1[nH]c(/C=C2\C(=O)Nc3ccc(F)cc32)c(C)c1C(=O)NCCCNc1ccc(C(=O)Nc2ccccc2N)cn1` [Example 6, (Z)-N-(2-aminophenyl)-6-(3-(2-((5-fluoro-2-oxoindolin-3-ylidene)methyl)-3,5-dimethyl-1H-pyrrole-4-carboxamido)propylamino)nicotinamide], half-maximal inhibition at c-Kit (IC50) required 76 nM. This molecule registered a 50% growth inhibitory concentration (GI50) in experiment [1] of 46 nM. In the experiment with HDAC4/5, the response was half-maximal at 1000 nM (EC50) and the “HDAC4/5 (MEF2 reporter assay) % Max Resp of CS055 at 3 μM” value was 44.2%. In addition, on HDAC3, a half-maximal response (EC50) required 1000 nM and the “HDAC3 (GDF11 reporter assay) % Max Resp” value is on record as 75.6%.

Molecule `Cc1[nH]c(/C=N/N=C2\C(=O)Nc3ccc(F)cc32)c(C)c1C(=O)NCCCNc1ccc(C(=O)Nc2ccccc2N)cn1` [Example 7, N-(2-aminophenyl)-6-(3-(2-(((5-fluoro-2-oxoindolin-3-ylidene)hydrazono)-methyl)-3,5-dimethyl-1H-pyrrole-4-carboxamido)propylamino)nicotinamide] showed an IC50 against c-Kit of over 1000 nM. Also, the GI50 in experiment [1] is over 1000 nM. In the experiment on HDAC4/5, the “HDAC4/5 (MEF2 reporter assay) % Max Resp of CS055 at 3 μM” value is reported as 2.6%. Further, the “HDAC3 (GDF11 reporter assay) % Max Resp” value at HDAC3 worked out at 6.3%.

In the case of `Cc1[nH]c(/C=C2\C(=O)Nc3ccc(F)cc32)c(C)c1C(=O)NCCCCNc1ccc(C(=O)Nc2ccccc2N)cn1` [Example 9, (Z)-N-(2-aminophenyl)-6-(4-(2-((5-fluoro-2-oxoindolin-3-ylidene)methyl)-3,5-dimethyl-1H-pyrrole-4-carboxamido)butylamino)nicotinamide], at c-Kit, the IC50 was determined as 23 nM. This molecule came in with a GI50 in experiment [1] of 32 nM. For the same molecule, in the experiment on HDAC4/5, the response was half-maximal at 20000 nM (EC50) and the “HDAC4/5 (MEF2 reporter assay) % Max Resp of CS055 at 3 μM” value is reported as 53.6%. For the same molecule, at HDAC3, the EC50 was found to be 15500 nM and the “HDAC3 (GDF11 reporter assay) % Max Resp” value amounted to 81.4%.

At c-Kit, `Cc1[nH]c(/C=N/N=C2\C(=O)Nc3ccc(F)cc32)c(C)c1C(=O)NCCCCNc1ccc(C(=O)Nc2ccccc2N)cn1` [Example 10, N-(2-aminophenyl)-6-(4-(2-(((5-fluoro-2-oxoindolin-3-ylidene)hydrazono)-methyl)-3,5-dimethyl-1H-pyrrole-4-carboxamido)butylamino)nicotinamide] came in with an IC50 of over 1000 nM. Further, the GI50 in experiment [1] was over 1000 nM. In the experiment with HDAC4/5, the “HDAC4/5 (MEF2 reporter assay) % Max Resp of CS055 at 3 μM” value was 12.8%. Further, the “HDAC3 (GDF11 reporter assay) % Max Resp” value on HDAC3 was determined as 8.3%.

`Cc1[nH]c(/C=C2\C(=O)Nc3ccc(F)cc32)c(C)c1C(=O)NCCNc1ccc(C(=O)Nc2ccc(F)cc2N)cn1` [Example 13, (Z)-N-(2-amino-4-fluorophenyl)-6-(2-(2-((5-fluoro-2-oxoindolin-3-ylidene)-methyl)-3,5-dimethyl-1H-pyrrole-4-carboxamido)ethylamino)nicotinamide] showed a 50% inhibitory concentration (IC50) at c-Kit of 534 nM. The GI50 in experiment [1] amounted to 151 nM. Also, the “HDAC4/5 (MEF2 reporter assay) % Max Resp of CS055 at 3 μM” value in the experiment with HDAC4/5 is on record as 0.5%. For the same molecule, the “HDAC3 (GDF11 reporter assay) % Max Resp” value at HDAC3 is recorded as 1.8%.

Turning to `Cc1[nH]c(/C=N/N=C2\C(=O)Nc3ccc(F)cc32)c(C)c1C(=O)NCCNc1ccc(C(=O)Nc2ccc(F)cc2N)cn1` [Example 14, N-(2-amino-4-fluorophenyl)-6-(2-(2-(((5-fluoro-2-oxoindolin-3-ylidene)-hydrazono)methyl)-3,5-dimethyl-1H-pyrrole-4-carboxamido)ethylamino)nicotinamide], the IC50 against c-Kit was over 1000 nM. Also, the GI50 in experiment [1] is over 1000 nM. Moreover, the “HDAC4/5 (MEF2 reporter assay) % Max Resp of CS055 at 3 μM” value in the experiment with HDAC4/5 was determined as 2.4%. Moreover, at HDAC3, the “HDAC3 (GDF11 reporter assay) % Max Resp” value amounted to 2.0%.

For the molecule `Cc1[nH]c(/C=C2\C(=O)Nc3ccc(F)cc32)c(C)c1C(=O)NCCCNc1ccc(C(=O)Nc2ccc(F)cc2N)cn1` [Example 16, (Z)-N-(2-amino-4-fluorophenyl)-6-(3-(2-((5-fluoro-2-oxoindolin-3-ylidene)-methyl)-3,5-dimethyl-1H-pyrrole-4-carboxamido)propylamino)nicotinamide], the IC50 on c-Kit is 242 nM. Also, in experiment [1], growth was halved (GI50) at 105 nM. Also, the “HDAC4/5 (MEF2 reporter assay) % Max Resp of CS055 at 3 μM” value in the experiment with HDAC4/5 is reported as −0.2%. Further, the “HDAC3 (GDF11 reporter assay) % Max Resp” value at HDAC3 was 1.8%.

With `Cc1[nH]c(/C=N/N=C2\C(=O)Nc3ccc(F)cc32)c(C)c1C(=O)NCCCNc1ccc(C(=O)Nc2ccc(F)cc2N)cn1` [Example 17, N-(2-amino-4-fluorophenyl)-6-(3-(2-(((5-fluoro-2-oxoindolin-3-ylidene)-hydrazono)methyl)-3,5-dimethyl-1H-pyrrole-4-carboxamido)propylamino)nicotinamide], on c-Kit, the IC50 was over 1000 nM. This molecule had a 50% growth inhibitory concentration (GI50) in experiment [1] of over 1000 nM. For the same molecule, in the experiment with HDAC4/5, the “HDAC4/5 (MEF2 reporter assay) % Max Resp of CS055 at 3 μM” value was 10.8%. Further, on HDAC3, the “HDAC3 (GDF11 reporter assay) % Max Resp” value came out at 3.8%.

As to `Cc1[nH]c(/C=C2\C(=O)Nc3ccc(F)cc32)c(C)c1C(=O)NCCCCNc1ccc(C(=O)Nc2ccc(F)cc2N)cn1` [Example 19, (Z)-N-(2-amino-4-fluorophenyl)-6-(4-(2-((5-fluoro-2-oxoindolin-3-ylidene)-methyl)-3,5-dimethyl-1H-pyrrole-4-carboxamido)butylamino)nicotinamide], the midpoint of inhibition at c-Kit, the IC50, lay at 65 nM. The GI50 in experiment [1] worked out at 42 nM. Further, the “HDAC4/5 (MEF2 reporter assay) % Max Resp of CS055 at 3 μM” value in the experiment with HDAC4/5 amounted to 1.9%. For the same molecule, the “HDAC3 (GDF11 reporter assay) % Max Resp” value on HDAC3 worked out at 2.0%.

These data come from patent publication US8158656B2, “2-indolinone derivatives as multi-target protein kinase inhibitors and histone deacetylase inhibitors” (Shenzhen Chipscreen Biosciences Ltd., priority 2008, dated 2012).
